# Literature values, collected in publication PMC5742115, “Pharmacophore Modeling and in Silico/in Vitro Screening for Human Cytochrome P450 11B1 and Cytochrome P450 11B2 Inhibitors” (Frontiers in Chemistry, 2017).
# Like-named read-outs stand apart in the source and are kept apart here.
# Tests used:
# CYP11B2 = details: reported activity, supplementary Table 1, read-out: CYP11B2 IC50, cited from earlier work
# CYP11B1 = details: reported activity, supplementary Table 1, read-out: CYP11B1 IC50, cited from earlier work
compound,measurement,setting,value
"CCOC(=O)c1cncn1[C@H](C)c1ccccc1 [CHEMBL681, Etomidate]",IC50,"CYP11B2; ref Dorr et al., 1984",0.1 nM
same,IC50,"CYP11B2; ref Roumen et al., 2010",1.7 nM
O=C1CCc2cc(-c3cccnc3)ccc2N1 [CHEMBL62811],IC50,"CYP11B1; ref Lucas et al., 2008b",6750 nM
same,IC50,"CYP11B2; ref Lucas et al., 2008b",28 nM
O=c1c2ccccc2oc2c(Br)ccc(Cn3ccnc3)c12 [CHEMBL78322],IC50,"CYP11B1; ref Gobbi et al., 2013",6.7 nM
same,IC50,"CYP11B2; ref Gobbi et al., 2013",8.5 nM
Cc1cncn1Cc1ccc(C#N)cc1 [CHEMBL162496],IC50,"CYP11B1; ref Roumen et al., 2010",141 nM
same,IC50,"CYP11B2; ref Roumen et al., 2010",12 nM
Brc1ccc2c(c1)CC/C2=C/c1c[nH]cn1 [CHEMBL174579],IC50,"CYP11B2; ref Ulmschneider et al., 2005b",10.3 nM
N#Cc1ccc2c(c1)CC/C2=C/c1ncc[nH]1 [CHEMBL175091],IC50,"CYP11B1; ref Ulmschneider et al., 2005b",12.3 nM
same,IC50,"CYP11B2; ref Ulmschneider et al., 2005b",35.7 nM
Clc1ccc2c(c1)/C(=C/c1cnc[nH]1)CCC2 [CHEMBL175144],IC50,"CYP11B2; ref Ulmschneider et al., 2005b",47.3 nM
Clc1ccc2c(c1)CC/C2=C\c1ccncc1 [CHEMBL175554],IC50,"CYP11B1; ref Ulmschneider et al., 2005a",1520 nM
same,IC50,"CYP11B2; ref Ulmschneider et al., 2005a",18 nM
COc1ccc2c(c1)CC/C2=C/c1ccncc1 [CHEMBL175609],IC50,"CYP11B2; ref Ulmschneider et al., 2005a",55 nM
Clc1ccc2c(c1)CC/C2=C/c1c[nH]cn1 [CHEMBL175688],IC50,"CYP11B1; ref Ulmschneider et al., 2005b",19.5 nM
same,IC50,"CYP11B2; ref Ulmschneider et al., 2005b",3.7 nM
COc1cccc2c1/C(=C/c1cccnc1)CC2 [CHEMBL175791],IC50,"CYP11B1; ref Ulmschneider et al., 2005a",955 nM
same,IC50,"CYP11B2; ref Ulmschneider et al., 2005a",27 nM
Clc1ccc2c(c1)CC/C2=C/c1ccncc1 [CHEMBL175799],IC50,"CYP11B1; ref Ulmschneider et al., 2005a",301 nM
same,IC50,"CYP11B2; ref Ulmschneider et al., 2005a",36 nM
C(=C1/CCc2ccccc21)/c1ccncc1 [CHEMBL175962],IC50,"CYP11B2; ref Ulmschneider et al., 2005a",8 nM
COc1ccc2c(c1)CCC/C2=C\c1ccncc1 [CHEMBL175979],IC50,"CYP11B2; ref Ulmschneider et al., 2005a",22 nM
COc1ccc2c(c1)CC/C2=C/c1cccnc1 [CHEMBL176101],IC50,"CYP11B1; ref Ulmschneider et al., 2005a",790 nM
same,IC50,"CYP11B2; ref Ulmschneider et al., 2005a",26 nM
Clc1cccc2c1CC/C2=C\c1cccnc1 [CHEMBL176287],IC50,"CYP11B1; ref Ulmschneider et al., 2005a",304 nM
same,IC50,"CYP11B2; ref Ulmschneider et al., 2005a",9 nM
COc1ccc2c(c1)CC/C2=C\c1cccnc1 [CHEMBL176609],IC50,"CYP11B1; ref Ulmschneider et al., 2005a",1450 nM
same,IC50,"CYP11B2; ref Ulmschneider et al., 2005a",34 nM
Brc1ccc2c(c1)CC/C2=C\c1cnc[nH]1 [CHEMBL177293],IC50,"CYP11B1; ref Ulmschneider et al., 2005a",1940 nM
same,IC50,"CYP11B2; ref Ulmschneider et al., 2005a",37 nM
same,IC50,"CYP11B2; ref Ulmschneider et al., 2005b",92.8 nM
C(=C1/CCc2ccccc21)/c1cnc[nH]1 [CHEMBL177468],IC50,"CYP11B1; ref Ulmschneider et al., 2005b",29.5 nM
same,IC50,"CYP11B2; ref Ulmschneider et al., 2005b",41 nM
C(=C1\CCc2ccccc21)/c1c[nH]cn1 [CHEMBL178036],IC50,"CYP11B1; ref Ulmschneider et al., 2005b",6.1 nM
same,IC50,"CYP11B2; ref Ulmschneider et al., 2005b",11 nM
Fc1ccc2c(c1)CC/C2=C/c1ccncc1 [CHEMBL179144],IC50,"CYP11B1; ref Ulmschneider et al., 2005b",34 nM
same,IC50,"CYP11B2; ref Ulmschneider et al., 2005b",29 nM
C(=C1\CCc2ccccc21)/c1ccncc1 [CHEMBL179149],IC50,"CYP11B1; ref Ulmschneider et al., 2005a",931 nM
same,IC50,"CYP11B2; ref Ulmschneider et al., 2005a",18 nM
Brc1ccc2c(c1)CC/C2=C/c1ccncc1 [CHEMBL179222],IC50,"CYP11B1; ref Ulmschneider et al., 2005a",484 nM
same,IC50,"CYP11B2; ref Ulmschneider et al., 2005a",56 nM
Fc1ccc2c(c1)CC/C2=C/c1c[nH]cn1 [CHEMBL179247],IC50,"CYP11B1; ref Ulmschneider et al., 2005b",11.2 nM
Cc1ccc2c(c1)/C(=C\c1ccncc1)CC2 [CHEMBL192077],IC50,"CYP11B2; ref Ulmschneider et al., 2005a",8 nM
COc1ccc2c(c1)CC/C2=C\c1cncs1 [CHEMBL192155],IC50,"CYP11B2; ref Ulmschneider et al., 2005a",17 nM
CCOc1ccc2cc(-c3cccnc3)ccc2c1 [CHEMBL193343],IC50,"CYP11B1; ref Voets et al., 2005",5420 nM
same,IC50,"CYP11B2; ref Voets et al., 2005",12 nM
COc1ccc2c(c1)CCC/C2=C/c1ccncc1 [CHEMBL193496],IC50,"CYP11B2; ref Ulmschneider et al., 2005a",56 nM
Brc1ccc2cc(-c3cccnc3)ccc2c1 [CHEMBL193534],IC50,"CYP11B1; ref Voets et al., 2005",2940 nM
same,IC50,"CYP11B2; ref Voets et al., 2005",15 nM
C(=C1/CC(c2ccccc2)c2ccccc21)/c1cccnc1 (centres unmarked) [CHEMBL193555],IC50,"CYP11B2; ref Ulmschneider et al., 2005a",3 nM
C(=C1/CCCc2ccccc21)/c1cccnc1 [CHEMBL193606],IC50,"CYP11B1; ref Ulmschneider et al., 2005a",715 nM
same,IC50,"CYP11B2; ref Ulmschneider et al., 2005a",22 nM
Clc1ccc2c(c1)CC/C2=C/c1cccnc1 [CHEMBL193652],IC50,"CYP11B1; ref Ulmschneider et al., 2005a",270 nM
same,IC50,"CYP11B2; ref Ulmschneider et al., 2005a",73 nM
c1ccc2cc(-c3cnco3)ccc2c1 [CHEMBL193653],IC50,"CYP11B1; ref Voets et al., 2005",805 nM
same,IC50,"CYP11B2; ref Voets et al., 2005",12 nM
COc1cc2c(cc1OC)/C(=C/c1ccncc1)CCC2 [CHEMBL193858],IC50,"CYP11B2; ref Ulmschneider et al., 2005a",11 nM
COc1ccc2ccc(-c3cccnc3)cc2c1 [CHEMBL193863],IC50,"CYP11B2; ref Pinto-Bazurco Mendieta et al., 2013",68 nM
Fc1ccc2c(c1)CC/C2=C\c1cccnc1 [CHEMBL193997],IC50,"CYP11B1; ref Ulmschneider et al., 2005a",311 nM
same,IC50,"CYP11B2; ref Ulmschneider et al., 2005a",7 nM
C/C(=C1/CCc2cc(F)ccc21)c1cccnc1 [CHEMBL194047],IC50,"CYP11B1; ref Ulmschneider et al., 2005b",96 nM
Brc1ccc2c(c1)CC/C2=C\c1cccnc1 [CHEMBL194440],IC50,"CYP11B1; ref Ulmschneider et al., 2005a",320 nM
same,IC50,"CYP11B2; ref Ulmschneider et al., 2005a",171 nM
COc1cc2ccccc2cc1-n1ccnc1 [CHEMBL194472],IC50,"CYP11B1; ref Voets et al., 2005",81 nM
same,IC50,"CYP11B2; ref Voets et al., 2005",19 nM
C(=C1c2ccccc2-c2ccccc21)c1cccnc1 [CHEMBL194928],IC50,"CYP11B2; ref Ulmschneider et al., 2005a",6 nM
Fc1ccc2c(c1)CC/C2=C\c1cncnc1 [CHEMBL195248],IC50,"CYP11B1; ref Ulmschneider et al., 2005b",27 nM
same,IC50,"CYP11B2; ref Ulmschneider et al., 2005b",6 nM
COc1ccc2c(c1)CC/C2=C/c1cncs1 [CHEMBL195354],IC50,"CYP11B2; ref Ulmschneider et al., 2005a",5 nM
Oc1ccc2cc(-c3cccnc3)ccc2c1 [CHEMBL195571],IC50,"CYP11B2; ref Voets et al., 2005",23 nM
Fc1ccc2c(c1)CC/C2=C\c1cccc2ncccc12 [CHEMBL195580],IC50,"CYP11B2; ref Ulmschneider et al., 2005a",14 nM
Fc1ccc2c(c1)CC/C2=C/c1cccc2ncccc12 [CHEMBL195653],IC50,"CYP11B2; ref Ulmschneider et al., 2005a",31 nM
c1ccc2cc(-n3ccnc3)ccc2c1 [CHEMBL195996],IC50,"CYP11B1; ref Voets et al., 2005",1320 nM
same,IC50,"CYP11B2; ref Voets et al., 2005",39 nM
COc1ccc2cc(-c3cccnc3)ccc2c1Br [CHEMBL196328],IC50,"CYP11B1; ref Voets et al., 2005",4480 nM
same,IC50,"CYP11B2; ref Voets et al., 2005",33 nM
N#Cc1ccc2cc(-c3cccnc3)ccc2c1 [CHEMBL196796],IC50,"CYP11B1; ref Voets et al., 2005",691 nM
same,IC50,"CYP11B2; ref Voets et al., 2005",3 nM
COc1ccc2cc(-c3cccnc3)ccc2c1Cl [CHEMBL197576],IC50,"CYP11B1; ref Voets et al., 2005",2520 nM
same,IC50,"CYP11B2; ref Voets et al., 2005",13 nM
c1cncc(-c2ccc3c4c(cccc24)CC3)c1 [CHEMBL199683],IC50,"CYP11B2; ref Ulmschneider et al., 2006",14 nM
c1ccc(-c2nc3ncc[nH]c-3n2)nc1 [CHEMBL201143],IC50,"CYP11B1; ref Hille et al., 2011a",16 nM
same,IC50,"CYP11B2; ref Hille et al., 2011a",251 nM
COc1ccc2c(c1)C=C(c1cccnc1)CC2 [CHEMBL206273],IC50,"CYP11B2; ref Voets et al., 2006",5 nM
O=c1cc(Cn2ccnc2)c2ccc(OCc3ccccc3)cc2o1 [CHEMBL225499],IC50,"CYP11B1; ref Stefanachi et al., 2011",72 nM
same,IC50,"CYP11B2; ref Stefanachi et al., 2011",289 nM
COc1ccc2c(c1)CC/C2=C\c1ccncc1 [CHEMBL359942],IC50,"CYP11B2; ref Ulmschneider et al., 2005a",59 nM
COc1ccc2c(c1)/C(=C/c1ccncc1)CC2 [CHEMBL365314],IC50,"CYP11B2; ref Ulmschneider et al., 2005a",3 nM
COc1ccc2c(c1)/C(=C\c1ccncc1)CC2 [CHEMBL370281],IC50,"CYP11B2; ref Ulmschneider et al., 2005a",26 nM
C(=C(c1ccccc1)c1ccccc1)c1cccnc1 [CHEMBL370317],IC50,"CYP11B2; ref Ulmschneider et al., 2005a",9 nM
Fc1ccc2c(c1)CC/C2=C/c1ccnc2ccccc12 [CHEMBL371275],IC50,"CYP11B2; ref Ulmschneider et al., 2005a",14 nM
Fc1ccc2c(c1)CC/C2=C\c1ccnc2ccccc12 [CHEMBL371509],IC50,"CYP11B2; ref Ulmschneider et al., 2005a",20 nM
Cc1ccc2c(c1)/C(=C/c1ccncc1)CC2 [CHEMBL371742],IC50,"CYP11B2; ref Ulmschneider et al., 2005a",4 nM
c1cncc(-c2ccc3cccc4c3c2CC4)c1 [CHEMBL372747],IC50,"CYP11B2; ref Ulmschneider et al., 2006",10 nM
CC1C/C(=C/c2cccnc2)c2ccccc21 (centres unmarked) [CHEMBL373074],IC50,"CYP11B2; ref Ulmschneider et al., 2005a",41 nM
C(=C(c1ccccc1)c1ccccc1)c1ccncc1 [CHEMBL381194],IC50,"CYP11B2; ref Ulmschneider et al., 2005a",22 nM
C(=C1c2ccccc2-c2ccccc21)c1ccncc1 [CHEMBL383145],IC50,"CYP11B2; ref Ulmschneider et al., 2005a",5 nM
COc1ccc(Cn2cncc2CCCO)cc1 [CHEMBL597577],IC50,"CYP11B2; ref Roumen et al., 2010",59 nM
c1ccc2c(c1)ncn2CC12CC3CC(CC(C3)C1)C2 [CHEMBL1651506],IC50,"CYP11B1; ref Hille et al., 2011b",75 nM
CC(C)C(c1ccc(-c2ccccc2)nc1)n1ccnc1 (centres unmarked) [CHEMBL2417622],IC50,"CYP11B2; ref Emmerich et al., 2013",28 nM
